Data: patent US7470669B2, “Isolated polypeptide comprising a leptin fragment” (Serono Genetics Institute, S.A., priority 1999, dated 2008)

Legend:
db/db mice = experiment: Postprandial plasma TG response after high-fat test meal in db/db mice; type: in vivo, mouse
Description: FIGS. 1A and 1B show the effect of leptin on postprandial plasma TG response in db/db and db^Pas/db^Pas mice. Overnight-fasted db/db (A), db^Pas/db^Pas (B) mice were gavage-fed a high-fat test meal and immediately injected intravenously (db/db) or intraperitoneally (db^Pas/db^Pas) with saline (open symbols) or 50 μg mouse recombinant leptin (closed symbols). At the indicated times, blood was collected from the tail (A) or orbital (B) vein, plasma was separated by centrifugation, and plasma TG concentrations were determined using an enzymatic kit. Each point represents the mean±SEM (db/db: saline, n=4, leptin, n=3; db^Pas/db^Pas: saline, n=6, leptin, n=7). The average plasma lipid response in 10 control C57BL6 mice is shown as a dotted line in both A and B. In a separate experiment, shown as an inset for each strain of mice, overnight fasted db/db (●) or db^Pas/db^Pas (▪) mice were gavage-fed the test meal and immediately injected intravenously with increasing concentrations of leptin. The plasma lipid response was then measured as in A and B. The area under the response curve (AUC) was then calculated using a triangulation method on Microsoft Excel between 0 and 4 hr (mg TG·h/mL). Values are presented as % of control value (test meal alone obtained in A or B). Each point represents the mean of at least 3 mice.
Mice that were fasted for 2-3 hours were gavage-fed 300 μL of a test meal consisting of 60% fat (37% saturated, 27% mono-, and 36% polyunsaturated fatty acids), 20% protein and 20% carbohydrate, and providing 56 kcal of energy/kg (1.5 g butter, 1.5 g sunflower oil, 2.5 g nonfat dry milk, 2.5 g sucrose and 3 ml water). Immediately after the meal, the animals were injected intravenously (db/db) or intraperitoneally (db^Pas/db^Pas) with either 200 μL physiological saline or 200 μL of the same solution containing recombinant mouse leptin. […] TG concentrations were determined using a commercially available enzymatic kit with controls included in each assay (Precinorm L, Roche-Boehringer Mannheim; Lyotrol N, BioMérieux). […]

lipase = experiment: Postheparin lipolytic activity in db^Pas/db^Pas mice; type: in vivo, mouse; settings: 50 μg/animal, t=2 h after test meal
Description: FIG. 12 contains a Table that presents results showing the effect of test meal with and without leptin injection on postheparin lipolytic activity in db^Pas/db^Pas mice. Animals were gavaged with the test-meal and injected at the same time with 50 μg leptin or physiological saline as described previously (t=0 h). After 1 h, the mice were injected with heparin and blood samples were taken at the peak of postprandial triglyceridemia (t=2 h). Lipase activity was measured in the postheparin plasma as described in the Examples section herein, and is reported here as the mean±SEM (n=3 animals for each condition; ns=not significant).
Mice were gavage-fed and injected with leptin or control solutions as described above. At t=1 h, the mice were injected subcutaneously with heparin (100 IU/kg body weight). At t=2 h, the animals were bled and the plasma was immediately separated by centrifugation. Lipase activity was determined according to Iverius and Brunzell (1985) using 20% Lipoven (Fresenius France Pharma, Louviers, France) as the source of TG. The assay was performed using 25 μL postheparin plasma in 0.15 M NaCl (200 μL total volume), and in the presence of 10 μL heat-inactivated (56° C., 30 min) human plasma as a source of apoC's. Before and at the end of the incubation, FFA concentrations were determined using an enzymatic kit.

leptin: plasma protein of 16 kDa produced by adipocytes; recombinant human or mouse leptin, species depends on the experiment
area under the TG curve (db/db mice; 250 ng leptin per animal, AUC 0-4 h): significant reduction | decrease of the area under the postprandial TG curve (db/db mice; 500 ng leptin per animal (maximum effect)): > 80% | amplitude of the triglyceride response (db/db mice; single bolus 50 μg mouse recombinant leptin i.v. at time of test meal): decreased the amplitude of the triglyceride response | lipase activity released in serum after heparin injections (lipase): did not significantly modify lipase activity
